Values after ≈ are worked out from the molar mass of the structure shown.
Columns and labels:
HSV-1 strain KOS = experiment: Anti-HSV-1 plaque reduction assay in Vero cells; assay type: cell-based, Herpes simplex virus; conditions: for IC50: Human alphaherpesvirus 1, HSV-1, plaque reduction, 72 h, Vero cells; for Selectivity Index CC50/IC50: HSV-1, Vero CC50 / IC50
[1] = system: HSV-2 (clinical isolates, acyclovir-sensitive); experiment: Anti-HSV-2 titer reduction assay in Vero cells; assay type: cell-based, Herpes simplex virus; conditions: for EC50: Human alphaherpesvirus 2, HSV-2, titer reduction, 48 h, Vero cells; for Selectivity Index CC50/EC50: HSV-2, Vero CC50 / EC50
in vitro = conditions: African green monkey
B. cereus ATCC 11778 = experiment: Broth microdilution MIC; assay type: cell-based; conditions: Bacillus cereus, ATCC11778, 24 h, 35 ± 2 °C
E. coli ATCC 25922 = experiment: Broth microdilution MIC; assay type: cell-based; conditions: Escherichia coli, ATCC25922, 24 h, 35 ± 2 °C
C. albicans ATCC 10231 = experiment: Broth microdilution MIC; assay type: cell-based; conditions: Candida albicans, ATCC10231, 48 h, 25 ± 2 °C
P. aeruginosa ATCC 27853 = experiment: Broth microdilution MIC; assay type: cell-based; conditions: Pseudomonas aeruginosa, ATCC27853, 24 h, 35 ± 2 °C
THP-1 cells [2] = experiment: Pyocyanin-triggered ROS production in THP-1 cells, DCFH-DA; assay type: cell-based, human; conditions: 5 μM, pyocyanin 100 μM, THP-1 monocytes
S. aureus ATCC 29213 = experiment: Broth microdilution MIC; assay type: cell-based; conditions: Staphylococcus aureus, ATCC29213, 24 h, 35 ± 2 °C
[3] = system: Gram-positive bacteria S. aureus and B. cereus; experiment: Broth microdilution MIC, summary for both Gram-positive strains; assay type: cell-based; conditions: S. aureus and B. cereus together
[4] = system: HL-60 (promyelocytic leukemia) cells; parameters: method as in earlier work; conditions: read-out: IC50 against HL-60 cells; cited from earlier work
THP-1 cells [5] = experiment: Cell viability of THP-1 cells, WST-1 assay; assay type: cell-based; conditions: Homo sapiens, WST-1, 24 h, 0.25 to 20 μM, read-out: IC50 for the THP-1 cell line (viability)
NF-κB/AP-1 = NF-κB/AP-1 activity, SEAP reporter in LPS-stimulated THP-1-XBlue-MD2-CD14 cells; assay type: cell-based, human; conditions: 5 μM, LPS 1 μg/mL, 24 h, vs vehicle
TNF-α = experiment: LPS-stimulated TNF-α secretion in PMA-differentiated THP-1 macrophages, ELISA; assay type: cell-based, human; conditions: 5 μM, LPS 1 μg/mL, 24 h
IL-1β = experiment: LPS-stimulated IL-1β secretion in PMA-differentiated THP-1 macrophages, ELISA; assay type: cell-based, human; conditions: 5 μM, LPS 1 μg/mL, 24 h

Structure (SMILES) | IC50 (HSV-1 strain KOS) | EC50 [1] | MIC (B. cereus ATCC 11778) | MIC (E. coli ATCC 25922) | MIC (C. albicans ATCC 10231) | MIC (P. aeruginosa ATCC 27853) | MIC (S. aureus ATCC 29213) | MIC range against both Gram-positive strains [3] | IC50 (THP-1 cells [5]) | CC50 at 84 h (in vitro) | Selectivity Index CC50/EC50 [1] | Effect on production of ROS (THP-1 cells [2]) | Selectivity Index CC50/IC50 (HSV-1 strain KOS) | IC50 [4] | Effect on NF-κB/AP-1 activity (NF-κB/AP-1) | Effect on LPS-stimulated secretion of TNF-α (TNF-α) | Effect on LPS-stimulated secretion of IL-1β (IL-1β)
Nc1nc2c(ncn2COCCO)c(=O)[nH]1 [Acyclovir, acyclovir, reference compound] | 1.92 ± 0.23 µg/mL (≈ 8.53 µM) | 1.75 ± 0.33 µg/mL (≈ 7.77 µM) | – | – | – | – | – | – | – | > 210 µg/mL | – | – | – | – | – | – | –
C=C1CC[C@H](C(C)(C)O)/C=C/[C@@H](C)CCC1=O [Compound 1, Litseagermacrane] | – | 1.25 ± 0.2 µg/mL (≈ 5.29 µM) | 64 µg/mL (≈ 271 µM) | > 64 µg/mL | > 64 µg/mL | > 64 µg/mL | > 64 µg/mL | – | – | > 210 µg/mL | >168.0 | no significant antioxidant potential | – | – | – | – | –
C=C(C)C1CCC(=C)C2(O)CCC3(C)C(CC(C)C)c4c(O)c(C=O)c(O)c(C=O)c4OC3C12 (centres unmarked) [Compound 4, Eucalyptal A] | – | – | 32 µg/mL (≈ 68.3 µM) | > 128 µg/mL | > 128 µg/mL | > 128 µg/mL | > 128 µg/mL | – | 1200 nM | – | – | – | – | 1700 nM | – | – | –
c1cc2c(cc1[C@H]1OC[C@H]3[C@@H]1CO[C@@H]3c1ccc3c(c1)OCO3)OCO2 [Compound 10, Sesamin] | – | – | > 32 µg/mL | > 32 µg/mL | > 32 µg/mL | > 32 µg/mL | > 32 µg/mL | – | – | – | – | – | – | – | – | – | –
C[C@H]1[C@H](C)CC[C@]2(C(=O)O)CC[C@]3(C)C(=CC[C@@H]4[C@@]5(C)CC[C@H](O)C(C)(C)[C@@H]5CC[C@]43C)[C@H]12 [Compound 11, Ursolic acid] | – | – | 32 µg/mL (≈ 70.1 µM) | > 128 µg/mL | > 128 µg/mL | > 128 µg/mL | 128 µg/mL (≈ 280 µM) | – | – | – | – | – | – | – | – | – | –
CN(C)[C@@H]1C(O)=C(C(N)=O)C(=O)[C@@]2(O)C(O)=C3C(=O)c4c(O)cccc4[C@@](C)(O)[C@H]3C[C@@H]12 [tetracycline, reference compound] | – | – | 0.03 µg/mL (≈ 0.0675 µM) | 1 µg/mL (≈ 2.25 µM) | – | 16 µg/mL (≈ 36 µM) | 0.125 µg/mL (≈ 0.281 µM) | – | – | – | – | – | – | – | – | – | –

More lines, main results first:

IC50 (HSV-1 strain KOS) | EC50 [1] | MIC (B. cereus ATCC 11778) | MIC (E. coli ATCC 25922) | MIC (C. albicans ATCC 10231) | MIC (P. aeruginosa ATCC 27853) | MIC (S. aureus ATCC 29213) | MIC range against both Gram-positive strains [3] | IC50 (THP-1 cells [5]) | Structure (SMILES) | CC50 at 84 h (in vitro) | Selectivity Index CC50/EC50 [1] | Effect on production of ROS (THP-1 cells [2]) | Selectivity Index CC50/IC50 (HSV-1 strain KOS) | IC50 [4] | Effect on NF-κB/AP-1 activity (NF-κB/AP-1) | Effect on LPS-stimulated secretion of TNF-α (TNF-α) | Effect on LPS-stimulated secretion of IL-1β (IL-1β)
1.23 ± 0.13 µg/mL (≈ 4.88 µM) | – | 16 µg/mL (≈ 63.4 µM) | > 64 µg/mL | > 64 µg/mL | > 64 µg/mL | 16 µg/mL (≈ 63.4 µM) | 8 to 32 µg/mL | – | Cc1c(O)c(C=O)c(O)c(C(=O)CC(C)C)c1O [Compound 2, Grandinol] | > 210 µg/mL | – | significantly increased the production of ROS | >170.7 | – | – | – | –
– | – | 8 µg/mL (≈ 33.6 µM) | > 32 µg/mL | > 32 µg/mL | > 32 µg/mL | 32 µg/mL (≈ 134 µM) | 8 to 32 µg/mL | – | CCC(C)C(=O)c1c(O)cc(OC)c(C)c1O (centres unmarked) [Compound 3, Pulverulentone B] | – | – | no significant antioxidant potential | – | – | – | – | –
– | 0.73 ± 0.11 µg/mL (≈ 1.4 µM) | > 128 µg/mL | > 128 µg/mL | > 128 µg/mL | > 128 µg/mL | > 128 µg/mL | – | – | Cc1cc(=O)c2c(O)cc(O[C@@H]3O[C@H](COC(=O)C4=CC[C@H](C(C)(C)O)CC4)[C@@H](O)[C@H](O)[C@H]3O)cc2o1 [Compound 5, Cypellocarpin C] | > 210 µg/mL | >287.7 | – | – | – | – | – | –
1.44 ± 0.14 µg/mL (≈ 4.61 µM) | – | 64 µg/mL (≈ 205 µM) | > 64 µg/mL | > 64 µg/mL | > 64 µg/mL | > 64 µg/mL | – | – | COc1c(C)c(O)c2c(=O)cc(-c3ccc(O)cc3)oc2c1C [Compound 6, Sideroxylin] | > 210 µg/mL | – | – | >145.8 | – | enhance it | – | –
– | – | 128 µg/mL (≈ 429 µM) | > 128 µg/mL | > 128 µg/mL | > 128 µg/mL | > 128 µg/mL | – | – | COc1cc2oc(-c3ccc(O)cc3)cc(=O)c2c(O)c1C [Compound 7, 8-Demethylsideroxylin] | – | – | – | – | – | enhance it | – | –
– | – | > 64 µg/mL | > 64 µg/mL | > 64 µg/mL | > 64 µg/mL | > 64 µg/mL | – | – | COc1ccc(-c2cc(=O)c3c(O)c(C)c(OC)c(C)c3o2)cc1 [Compound 8, Eucalyptin] | – | – | – | – | – | – | Neither compound 8 nor 12 showed any influence on the secretion of TNF-α | increased the secretion of the IL-1β
– | – | > 64 µg/mL | > 64 µg/mL | > 64 µg/mL | > 64 µg/mL | > 64 µg/mL | – | – | COc1ccc(-c2cc(=O)c3c(O)c(C)c(OC)cc3o2)cc1 [Compound 9, 8-Demethyleucalyptin] | – | – | – | – | – | reduce the activation of NF-κB/AP-1 | – | –
0.96 ± 0.12 µg/mL (≈ 1.52 µM) | – | > 32 µg/mL | > 32 µg/mL | > 32 µg/mL | > 32 µg/mL | > 32 µg/mL | – | – | COc1cc(/C=C/C(=O)O[C@H]2CC[C@]3(C)[C@H]4C=C[C@]56OC(=O)[C@@]7(CC[C@@H](C)[C@H](C)[C@H]75)CC[C@@]6(C)[C@]4(C)CC[C@H]3C2(C)C)ccc1O [Compound 12, Tereticornate A] | > 210 µg/mL | – | – | >218.8 | – | statistically significant inhibitory potential, stronger than that of prednisone | Neither compound 8 nor 12 showed any influence on the secretion of TNF-α | attenuates the LPS-stimulated secretion of IL-1β
– | – | – | – | 4 µg/mL (≈ 10.3 µM) | – | – | – | – | Clc1ccc(C(Cn2ccnc2)OCc2ccsc2Cl)c(Cl)c1 (centres unmarked) [tioconazole, reference compound] | – | – | – | – | – | – | – | –
